In publication PMC6385203, “Mutations in the palm domain disrupt modulation of acid-sensing ion channel 1a currents by neuropeptides” (Scientific Reports, 2019):
Peptide text beside a SMILES is read from it.

Biological target: T1, ASIC1a N416C (Homo sapiens, UniProt P78348, N416C)
T1 construct: expressed in transfected cells; host or cells: Xenopus laevis oocytes injected with cRNA
T1 sequence (P78348 1-528 N416C): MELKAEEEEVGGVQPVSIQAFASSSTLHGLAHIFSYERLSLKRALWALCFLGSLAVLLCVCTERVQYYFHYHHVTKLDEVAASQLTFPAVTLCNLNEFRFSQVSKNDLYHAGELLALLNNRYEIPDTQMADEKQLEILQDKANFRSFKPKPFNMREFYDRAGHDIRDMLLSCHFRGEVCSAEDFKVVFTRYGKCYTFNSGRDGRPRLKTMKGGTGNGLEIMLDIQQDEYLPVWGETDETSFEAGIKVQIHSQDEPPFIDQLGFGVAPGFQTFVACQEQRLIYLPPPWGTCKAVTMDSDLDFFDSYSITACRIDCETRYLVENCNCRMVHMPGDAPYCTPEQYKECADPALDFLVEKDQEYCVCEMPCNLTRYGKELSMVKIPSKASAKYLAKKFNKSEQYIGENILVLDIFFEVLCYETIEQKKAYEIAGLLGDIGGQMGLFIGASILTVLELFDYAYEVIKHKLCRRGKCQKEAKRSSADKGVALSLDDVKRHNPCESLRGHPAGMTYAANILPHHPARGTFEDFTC
Test: Isust/Ipeak, TEVC in Xenopus oocytes
Format: cell-based
Conditions: pH5, n = 6–7, mean ± SEM, read-out: EC50 of FRRFa (Isust/Ipeak)
Excerpt: To test the docking predictions, Cys mutants of palm and other proximal residues predicted to interact with the peptide were made. Since most of these residues are large and hydrophilic, the mutation to Cys changed the side chain properties substantially. Therefore, and because MTSET modification of many palm residues leads to currents with a large sustained component[22] that may render the measurement of FRRFa effects difficult, we exposed only the Cys mutants of hydrophobic residues (I307C and V414C) to 1 mM MTSET prior to the experiments with FRRFa. Asp212 was mutated to Gly (and not Cys), since we have previously observed that this residue is very sensitive to mutation, and that it is in most ASIC1a orthologs and even in several human ASIC1a clones a Gly. […] Due to the extremely small FRRFa-induced Isust/Ipeak ratio changes it was not possible to determine the EC50 of FRRFa on these mutants. To learn more about the nature of the Isust/Ipeak ratio increase by the N416C mutation, we measured the EC50 of FRRFa, which was 6 ± 2 μM (Fig. 6e, n = 6–7). […]
Electrophysiological measurements were performed 1–2 days after cRNA injection. Ion currents were recorded using two-electrode voltage-clamp at a holding potential of −60 mV with a Dagan TEV-200 amplifier (Minneapolis, MN). […] The amplitude of the sustained current was measured in the last two seconds of the pH5 perfusion. […]

N=C(N)NCCC[C@H](NC(=O)[C@H](CCCNC(=N)N)NC(=O)[C@@H](N)Cc1ccccc1)C(=O)N[C@@H](Cc1ccccc1)C(N)=O [FRRFa, Phe-Arg-Arg-Phe-amide] (H-FRRF-NH2)
EC50: 6 ± 2 µM
